Test results taken from patent US20180111913A1, “SUBSTITUTED BENZOFURAN DERIVATIVES AS NOVEL ANTIMYCOBACTERIAL AGENTS” (priority 2015, published 2018).
≈ marks a conversion by molar mass, not a printed value. Like-named read-outs stand apart in the source and are kept apart here.

What was measured:
[1] = biological target: Mtb Pks13-TE domain (wild-type) (Mycobacterium tuberculosis, UniProt I6X8D2); assay: biochemical; format: biochemical
Mtb strain mc^27000 = assay: microbe, parasite or virus in culture; format: cell-based, Mycobacterium tuberculosis
[2] = tested on: human dermal fibroblast (HDF) cells; details: for Non-Toxic Concentration: human, 48 h
[3] = Pks13-TE, 20 μM 4-MUH, read-out: IC50
[4] = Pks13 enzyme inhibition, read-out: Pks13 IC50
[5] = Mycobacterium tuberculosis, Mtb mc^27000, liquid medium, 96-well plates, read-out: MIC
[6] = Mycobacterium tuberculosis, read-out: Pks13 MIC
[7] = HDF cell survival relative to DMSO-only control at the first (or only) Non-Toxic Concentration value
[8] = HDF cell survival relative to DMSO-only control at the second Non-Toxic Concentration value
[9] = Mtb Pks13-TE domain, mean ± s.d. of triplicates, read-out: IC50
[10] = Mtb mc^27000, liquid medium, 96-well plates
[11] = […], mean ± s.d. of triplicates, NI: no inhibition
[12] = Mycobacterium tuberculosis, […], mean ± s.d. of triplicates, NI: no inhibition, read-out: MIC
[13] = Mtb mc^27000, liquid medium, 96-well plates, read-out: MIC

Sequence of Mtb Pks13-TE domain (wild-type) (I6X8D2 1451-1733): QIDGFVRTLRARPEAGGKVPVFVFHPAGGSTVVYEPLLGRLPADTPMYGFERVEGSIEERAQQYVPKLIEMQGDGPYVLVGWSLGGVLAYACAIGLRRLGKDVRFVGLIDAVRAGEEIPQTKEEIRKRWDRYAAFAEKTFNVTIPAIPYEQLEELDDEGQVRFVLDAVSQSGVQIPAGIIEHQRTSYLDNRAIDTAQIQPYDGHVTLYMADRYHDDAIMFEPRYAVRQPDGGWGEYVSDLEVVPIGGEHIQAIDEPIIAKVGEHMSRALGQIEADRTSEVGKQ

Row | Structure (SMILES) | IC50 [1, 3] [nM] | IC50 [1, 4] [nM] | MIC (Mtb strain mc^27000; [5]) [µM] | MIC (Mtb strain mc^27000; [6]) [µM] | Survival vs. Control [2, 7] [%] | Non-Toxic Concentration [2] [µM] | other results
1 | CNC(=O)c1c(-c2ccccc2)oc2cc(O)cc(CN3CCCCC3)c12 [compound 40] | 600 | 600 | 20 (≈ 7.29 µg/mL) | 20 (≈ 7.29 µg/mL) | 101 | 100 | 
2 | CCOC(=O)c1c(-c2ccccc2)oc2cc(N)c(O)c(CN3CCCCC3)c12 [compound 27] | 370 | 370 | 8 (≈ 3.16 µg/mL) | 8 (≈ 3.16 µg/mL) | 77 |  | Survival vs. Control [2, 8]: 114%
3 | CCOC(=O)c1c(-c2ccccc2)oc2cc(N)cc(CN3CCCCC3)c12 [compound 34] | 4500 | 4500 | 9.2 (≈ 3.48 µg/mL) | 9.2 (≈ 3.48 µg/mL) | 82 | 100 | 
4 | CCOC(=O)c1c(-c2ccccc2)oc2cc(O)cc(CN3CCC(C#N)CC3)c12 [compound 69] | 1600 | 1600 | 20 (≈ 8.09 µg/mL) | 20 (≈ 8.09 µg/mL) | 93 | 50 | 
5 | CNC(=O)c1c(-c2cc(F)c(O)c(F)c2)oc2ccc(O)c(CN3CCCCC3)c12 [compound 64] | 1500 | 1500 to 1900 | > 40 |  | 94 | 100 | Pks13 MIC (Mtb strain mc^27000; whole cell, mc^27000 Mtb, NI at 40 μM): NI (40 μM)
6 | CNC(=O)c1c(-c2ccc(O)c(F)c2)oc2ccc(O)c(CN3CCCCC3)c12 [compound 61] |  | 330 | 0.5 (≈ 0.199 µg/mL) | 0.5 (≈ 0.199 µg/mL) | 94 | 50 | 
7 | CCOC(=O)c1c(-c2ccc(O)nc2)oc2ccc(O)c(CN3CCCCC3)c12 [compound 58] |  | 360 | 4 (≈ 1.59 µg/mL) | 4 (≈ 1.59 µg/mL) | 95 | 50 | 
8 | CCOC(=O)c1c(-c2cc(F)c(O)c(F)c2)oc2ccc(O)c(CN3CCCCC3)c12 [compound 63] | 500 | 500 | 7 (≈ 3.02 µg/mL) | 7 (≈ 3.02 µg/mL) | 99 | 25 | 
9 | Oc1ccc2[nH]c(-c3ccccc3)nc2c1CN1CCCCC1 [compound 8] | 6800 | 6800 | 22 (≈ 6.76 µg/mL) | 22 (≈ 6.76 µg/mL) | 78 |  | Survival vs. Control [2, 8]: 94%
10 | CCOC(=O)c1c(-c2ccccc2)oc2ccc(O)c(CN3CCCC(C)C3)c12 (stereo not drawn) [compound 2] | 120 |  |  |  |  |  | IC50 [1, 9]: 120 ± 20 nM; higher MIC compared to the test compound (Mtb strain mc^27000): ~2 fold; MIC (Mtb strain mc^27000; [10]): 4.4 ± 0.2 µM (≈ 1.73 µg/mL); MIC (Mtb strain mc^27000; [11]): 4.4 ± 0.2 µM (≈ 1.73 µg/mL); growth inhibition in HDF cells relative to DMSO only control ([2]; up to 40 (unit not given)): did not show any growth inhibition
11 | O=C(c1c(-c2ccccc2)oc2ccc(O)c(CN3CCCCC3)c12)N1CCNCC1 [compound 41] | 440 | 740 | 20 (≈ 8.39 µg/mL) | 3.1 (≈ 1.3 µg/mL) | 100 | 100 | 
12 | CNC(=O)c1c(-c2ccc(O)nc2)oc2cc(O)cc(CN3CCCCC3)c12 [compound 88] |  | 2800 | 2.8 (≈ 1.07 µg/mL) |  | 96 | 50 | 
13 | CCOC(=O)c1c(-c2ccccc2)oc2ccc(O)c(CN3CCCCC3)c12 [compound 13] | 300 | 260 | 0.4 (≈ 0.152 µg/mL) | 0.4 (≈ 0.152 µg/mL) | 105 | 50 | MIC (Mtb strain mc^27000; [12]): 0.4 µM (≈ 0.152 µg/mL); growth inhibition in HDF cells relative to DMSO only control [2]: did not show any growth inhibition
14 | CCOC(=O)c1c(-c2ccc(O)cc2)oc2cc(O)cc(CN3CCCCC3)c12 [compound 45] | 440 | 440 | 1.1 (≈ 0.435 µg/mL) | 1.1 (≈ 0.435 µg/mL) | 89 | 100 | 
15 | CC(C)(C)OC(=O)N1CCN(C(=O)c2c(-c3ccccc3)oc3ccc(O)c(CN4CCCCC4)c23)CC1 [compound 39] | 660 | 660 | 2.1 (≈ 1.09 µg/mL) | 2.1 (≈ 1.09 µg/mL) | 101 | 100 | 
16 | CNC(=O)c1c(-c2ccc(F)cc2)oc2ccc(O)c(CN3CCCCC3)c12 [compound 29] | 300 | 300 | 4.5 (≈ 1.72 µg/mL) | 4.5 (≈ 1.72 µg/mL) | 89 |  | Survival vs. Control [2, 8]: 112%
17 | CCOC(=O)c1c(-c2ccccc2)oc2ccc(O)c(CN3CCCCCC3)c12 [compound 4] | 280 ± 30 |  | 4.6 ± 0.3 (≈ 1.81 µg/mL) |  |  |  | IC50 [1, 9]: 280 ± 30 nM; higher MIC compared to the test compound (Mtb strain mc^27000): ~2 fold; MIC (Mtb strain mc^27000; [12]): 4.6 ± 0.03 µM (≈ 1.81 µg/mL); growth inhibition in HDF cells relative to DMSO only control [2]: did not show any growth inhibition
18 | CC(=O)NCCNC(=O)c1c(-c2ccccc2)oc2ccc(O)c(CN3CCCCC3)c12 [compound 44] | 500 | 500 | > 40 | > 40 | 104 | 50 | 
19 | O=C(c1c(-c2ccccc2)oc2ccc(O)c(CN3CCCCC3)c12)N1CCCCC1 [compound 42] | 740 | 320 |  | > 10 | 89 | 100 | MIC (Mtb strain mc^27000; [13]): 3.1 µM (≈ 1.3 µg/mL)
20 | CCOC(=O)c1c(-c2ccccc2)oc2cc(OC)cc(CNC(C)C)c12 [compound 72] | > 10000 | > 10000 | 7.4 (≈ 2.72 µg/mL) | 7.4 (≈ 2.72 µg/mL) | 91 | 3.125 | 
21 | CCOC(=O)c1c(-c2ccccc2)oc2ccc(O)c(CN3CCCC3)c12 [compound 3] | 240 ± 20 |  |  |  |  |  | IC50 [1, 9]: 240 ± 20 nM; higher MIC compared to the test compound (Mtb strain mc^27000): ~2 fold; MIC (Mtb strain mc^27000; [13]): 4.1 µM (≈ 1.5 µg/mL); MIC (Mtb strain mc^27000; [11]): 4.1 ± 0.1 µM (≈ 1.5 µg/mL); IC50 ([2]; read-out: half-maximum inhibitory concentration in HDF cells, HDF cells, resazurin): > 15000 nM
22 | CCOC(=O)c1c(-c2ccccc2)oc2ccc(O)c(CN3CCOCC3)c12 [compound 5] | 710 |  |  |  |  |  | IC50 [1, 9]: 710 ± 50 nM; IC50 value lower than compound F against Pks13-TE ([1]; relative to compound F): > 2 fold; loss of inhibitory activity / higher IC50 against Pks13-TE compared to the test compound ([1]; relative to test compound): ~3 fold; higher MIC compared to the test compound (Mtb strain mc^27000): 6 fold; MIC (Mtb strain mc^27000; [10]): 13.3 ± 1.6 µM (≈ 5.07 µg/mL); MIC (Mtb strain mc^27000; [11]): 13.3 ± 1.6 µM (≈ 5.07 µg/mL); MIC higher than compound F in whole cell testing (Mtb strain mc^27000; relative to compound F): ~2 fold; growth inhibition in HDF cells relative to DMSO only control ([2]; up to 40 (unit not given)): did not show any growth inhibition
23 | CCOC(=O)c1c(-c2ccccc2)oc2cc(O)cc(CN3CCC(NC(C)=O)CC3)c12 [compound 70] | 6100 | 6100 | > 40 | > 40 | 91 | 50 | 
24 | CCOC(=O)c1c(-c2ccc(F)cc2)oc2cc(O)cc(CCNC(C)C)c12 [compound 73] | 2100 | 1500 to 2100 | 2.5 (≈ 0.964 µg/mL) | 2.5 (≈ 0.964 µg/mL) | 97 | 12.5 | 
25 | OCc1c(-c2ccccc2)oc2ccc(O)c(CN3CCCCC3)c12 [compound 65] | 240 | 240 | 12.5 (≈ 4.22 µg/mL) | 6 to 12.5 (≈ 2.02 to 4.22 µg/mL) | 95 | 25 | 
26 | COC(=O)c1c(-c2ccccc2)oc2cc(O)cc(CNC(C)C)c12 [compound 67] |  | 700 | 9 (≈ 3.05 µg/mL) | 9 (≈ 3.05 µg/mL) | 97 | 25 | 
